US9365511B2, “Biphenyl-ethyl-pyrrolidine derivatives as histamine H3 receptor modulators for the treatment of cognitive disorders” (Arena Pharmaceuticals, Inc., priority 2013, dated 2016)
Entries after “also recorded” stand apart in the source; their conditions may differ. Like-named read-outs stand apart in the source and are kept apart here.

Key:
[1] = molecular target: human H3 receptor (Homo sapiens (Human), UniProt Q9Y5N1); assay: Human H3 receptor HTRF cAMP assay; type: cell-based; conditions: HEK293 cells expressing the human H3 receptor, forskolin 2 μM; read-out: IC50 H3R
Description: Homogeneous time-resolved fluorescence assays (HTRF®, Cisbio) detect levels of cAMP in lysed cell preparations using a europium or terbium cryptate-labeled anti-cAMP antibody and fluorophore-labeled cAMP (cAMP-d2). In the absence of exogenous cAMP, the anti-cAMP antibody binds to cAMP-d2. Photoexcitation of the cryptate donor results in a combination of cryptate emission at 620 nm and fluorescence resonance energy transfer (FRET) from the cryptate to the acceptor d2 fluorophore, which then fluoresces at 665 nm. The 620/665 nm emission ratio is monitored. In the presence of exogenous cAMP, which competes with cAMP-d2 for binding to the anti-cAMP antibody, FRET is decreased and the […], providing a sensitive and accurate means to measure cAMP levels in biological assays.
Compounds of the present invention were evaluated using the human H3 receptor (H3R) HTRF cAMP assay. In this assay, HEK293 cells expressing the human H3 receptor were suspended in PBS containing 100 μM IBMX and plated into 384-well assay plates (Perkin Elmer Proxiplate 384-Plus; 15,000 cells per well; 5 μL plating volume) and allowed to equilibrate for an hour. Test compounds were serially diluted in 100% DMSO and then further diluted in PBS containing forskolin (2 μM). Test compounds (5 μL) were then added to the assay plate and the mixture was incubated for 1 hour. HTRF assay reagents (Cisbio, Dynamic 2 cAMP Kit), cAMP-d2 and cryptate-labeled anti-cAMP antibody, are mixed with cell lysis buffer and added to the assay plate. After 1-hour incubation with these reagents, the assay plate was read on an HTRF-compatible microplate reader (Perkin Elmer EnVision or BMG Pherastar). A cAMP standard curve was included on each assay plate and HTRF emission ratios for test compounds were fit to this curve to generate accurate measures of cAMP levels in each test well.

[2] = system: histamine-induced scratching behavior in mice; assay: Histamine-induced model for pruritus (Example 5); type: in vivo, C57BL/6 mice; conditions: oral administration, histamine 3 μmol s.c. 30 min post-dosing, bouts counted 0-30 min, FIG. 5
Experimental: C57BL/6 mice (9 per group) were administered with either vehicle (0.5% Methocellulose) or Compound 3. Thirty minutes post-dosing, the mice were injected with histamine (3 μmol) subcutaneously and placed in a clear observation box. Mice were video recorded and the number of scratching bouts that occurred between 0 and 30 minutes was counted after histamine injection.

[3] = Brain to plasma ratio determination in male C57BL6 mouse; type: in vivo, Male C57BL6 mice
Experimental: Male C57BL6 mice were administered Compound 3 at 3 mg/kg by either intraperitoneal injection (IP) or oral gavage (PO). Plasma and brain samples were collected at 0.5 and 2.0 h post-dose. Blood samples were collected via eye bleed, followed by decapitation and extraction of the brain from the cranial cavity. Blood was treated with 0.5% EDTA; plasma was separated by centrifugation. Brain tissue was placed in ice-cold containers. Plasma and brain samples were frozen at approximately −70° C. until assayed at Arena Pharmaceuticals. Compound 3 plasma and brain concentrations were determined by LC/MS/MS. The lower limit of quantitation (i.e., LLQ) was 25.0 and 3.0 ng/mL for plasma and brain, respectively.

[4] = system: histamine-induced scratching behavior in mice; assay: Histamine-induced model for pruritus (Example 6); type: in vivo, C57BL/6j male mice; conditions: oral administration, histamine s.c. 30 min post-dosing, bouts counted 5-15 min, FIG. 6
Experimental: H3R inhibitors, Compound 3 and Compound 11, were dissolved in 0.5% methylcellulose at the appropriate concentration and 100 μL were administered orally to 8-week-old C57BL/6j male mice. Thirty minutes post-dosing, 25 μL of 40 mg/mL histamine solution was injected subcutaneously at the rostral part of the back. Mice were video recorded and the number of scratching bouts that occurred between 5 and 15 minutes was counted after histamine injection.

Chain of human H3 receptor (Q9Y5N1 whole entry): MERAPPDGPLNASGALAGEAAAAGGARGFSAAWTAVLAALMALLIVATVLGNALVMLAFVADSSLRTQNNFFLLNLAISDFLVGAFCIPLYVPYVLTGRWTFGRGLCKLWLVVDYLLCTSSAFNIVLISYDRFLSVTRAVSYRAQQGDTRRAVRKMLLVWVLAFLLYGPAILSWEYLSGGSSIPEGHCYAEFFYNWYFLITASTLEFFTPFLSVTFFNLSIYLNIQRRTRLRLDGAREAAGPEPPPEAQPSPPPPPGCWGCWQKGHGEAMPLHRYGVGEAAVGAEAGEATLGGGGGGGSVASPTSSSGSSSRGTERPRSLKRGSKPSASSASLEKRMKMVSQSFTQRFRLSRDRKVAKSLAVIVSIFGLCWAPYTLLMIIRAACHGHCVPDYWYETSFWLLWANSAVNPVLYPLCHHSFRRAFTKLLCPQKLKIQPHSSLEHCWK

C[C@@H]1CCCN1CCc1ccc(-c2ccc(CCC(=O)O)cc2)cc1 [Compound 3, (R)-3-(4′-(2-(2-Methylpyrrolidin-1-yl)ethyl)biphenyl-4-yl)propanoic Acid]
IC50 [1]: 2.5 nM | histamine-induced scratching behavior (number of scratching bouts) [2]: effectively inhibits histamine-induced pruritus; also recorded: inhibit histamine-induced scratching behavior | concentration at 0.5 h ([3]; C57BL6, brain, 3 mg/kg PO, 0.5 h post-dose, read-out: brain concentration): 39.8 ± 22.7 ng/g | concentration at 2 h ([3]; C57BL6, brain, 3 mg/kg PO, 2.0 h post-dose, read-out: brain concentration): 29.1 ± 7 ng/g | concentration at 0.5 h ([3]; C57BL6, brain, intraperitoneal, 3 mg/kg IP, 0.5 h post-dose, read-out: brain concentration): 71.7 ± 10.7 ng/g | concentration at 2 h ([3]; C57BL6, brain, intraperitoneal, 3 mg/kg IP, 2.0 h post-dose, read-out: brain concentration): 17.2 ± 7.5 ng/g | Kp ([3]; C57BL6, brain/plasma, 3 mg/kg IP, independent of time): ~0.05 | Kp at 0.5 h ([3]; C57BL6, brain/plasma, 3 mg/kg PO, 0.5 h post-dose): 0.04 | Kp at 2 h ([3]; C57BL6, brain/plasma, 3 mg/kg PO, 2.0 h post-dose): 0.05 | concentration at 0.5 h ([3]; C57BL6, plasma, 3 mg/kg PO, 0.5 h post-dose, read-out: plasma concentration): 1080 ± 487 ng/mL | concentration at 2 h ([3]; C57BL6, plasma, 3 mg/kg PO, 2.0 h post-dose, read-out: plasma concentration): 619 ± 185 ng/mL | concentration at 0.5 h ([3]; C57BL6, plasma, intraperitoneal, 3 mg/kg IP, 0.5 h post-dose, read-out: plasma concentration): 1350 ± 104 ng/mL | concentration at 2 h ([3]; C57BL6, plasma, intraperitoneal, 3 mg/kg IP, 2.0 h post-dose, read-out: plasma concentration): 364 ± 135 ng/mL | histamine-induced scratching behavior (number of scratching bouts) [4]: effectively inhibit histamine-induced pruritus; also recorded: inhibit histamine-induced scratching behavior
